SMILES | melting point [°C]
CC(=O)NC(=O)OC[C@]1(C)S[C@@H]2[C@H](NC(=O)COc3ccccc3)C(=O)N2[C@H]1C(=O)OCc1ccc([N+](=O)[O-])cc1 | 83 to 85
O=C(O)c1ccc(-c2ccc(Cl)cc2)cn1 | > 260
COC(=O)c1ccc2nc(-c3ccc4c(c3)C(C)(C)CCC4(C)C)[nH]c2c1 | 223
Cc1cccc(C)c1NC(=O)N1CC(C)(C)NC1=S | 242 to 243
CC1=Nc2c(nc(N)[nH]c2=O)NC1C (stereo not drawn) | > 300
O=CC(=Cc1ccccc1Br)C(C=O)=Cc1ccccc1Br | 194 to 195
COc1ccc2[nH]c(C(=O)N3CCC[C@H](C)C3)cc2c1 | 189 to 192
C1=C(CCc2c[nH]c3ccccc23)CCNC1 | 155
O=C(CCc1cnoc1-c1ccccc1)Nc1ccc(CP(=O)(O)O)cc1 | 162 to 164
CC(C)(C)NS(=O)(=O)c1ccsc1C1=CC(=O)CCC1 | 157 to 158
Cc1cc2c(cc1Br)nc1n2CCC1 | 167 to 170
CCOC(=O)C(=O)Nc1cccc(NC(=O)C(=O)OCC)n1 | 179 to 180
CC(C)(C)c1ccc(C(=O)CCCCCc2ccccc2)cc1NC(=O)CC1c2ccccc2Oc2ccccc21 | 119 to 120
Cc1nc(C)n(-c2cc([C@@H]3C[C@H]3c3nc4ccccc4n3C)nc(C3CC3)n2)n1 (relative stereo) | 180 to 182
CSC(=N[N+](=O)[O-])N(C)SC(Cl)(Cl)Cl | 75 to 78
CCOc1ccc(C2=NN(C3CCCC3)C(=O)[C@H]3CCCC[C@@H]23)cc1OCC (relative stereo) | 111 to 114
S=c1[nH]ccn1C1CCc2ccccc21 (stereo not drawn) | 136 to 137
CC(C)(C)OC(=O)N1CCC(NCc2cccc(NC(=O)c3ccc(F)cc3Cl)n2)CC1 | 79.1
CCCN(CCC)C1Cc2cccc3nc(N)n(c23)C1 (stereo not drawn) | 160 to 170
N#CC(CC(=O)CCl)(c1ccccc1)c1ccccc1 | 102 to 104

SMILES | melting point [°C]
NC(=O)c1ccc(F)c2c1C=C([N+](=O)[O-])CO2 | 225 to 227
O=C(O)C1CCCc2sc(=O)[nH]c21 (stereo not drawn) | 192
CCC1Nc2cc(C)cc(C)c2N1c1ccc(CCNC(=O)NS(=O)(=O)c2ccc(C)cc2)cc1 (stereo not drawn) | 108 to 112
C=CCc1c(N2C(=O)C3=C(CCCC3)C2=O)ccc(Cl)c1O | 80 to 82.5
CCCCN1CC(=O)N(c2cc(Cl)ccc2C)C1=S | 102 to 103
CCN(CC)Cc1ccnc(F)c1C=NO | 97 to 99
CCOC(=O)NN=C(c1cccnc1)C1COCOC1 | 132
CC(=O)Nc1cc([N+](=O)[O-])c(Cl)cc1F | 125 to 126
CC(C)[C@H](NC(=O)OCc1ccccc1)C(=O)N(CC(=O)O)C1CCCCCC1 | 48 to 51
O=C(Nc1ccccc1)C1=Cc2ccccc2S1(=O)=O | > 220
c1cn(CCC23CC4CC(CC(C4)C2)C3)cn1 | 64 to 65
COc1ccc(/C=C/C(=O)Nc2ccccc2C(=O)O)cc1 | 194 to 195
CCCCn1c(=O)c2nc(C(=O)O)cn2c2ccccc21 | 220 to 222
O=C1CCN2CC3c4ccccc4CCc4cccc(c43)C2C1 (stereo not drawn) | 163 to 165
Cn1c([N+](=O)[O-])cnc1-c1nnc2ccc(N=CNC3CCCCC3)nn12 | 198 to 200
Cc1nn(-c2cc(CC(Cl)C(=O)NC3CC3)c(Cl)cc2Cl)c(=O)n1C(F)F (stereo not drawn) | 139 to 143
CC(=O)ON1Cc2ccccc2C1=O | 69 to 71
CSCC[C@H](NC(=O)OC(C)(C)C)C(=O)Oc1ccc(NC(C)=O)cc1 | 225 to 228
CCCCOC(=O)N(C)S(=O)(=O)c1cc([N+](=O)[O-])c(N(CCC)CCC)c([N+](=O)[O-])c1 | 99 to 101
C[C@@H](O)[C@](O)(Cn1cncn1)c1ccc(F)cc1F (racemic) | 115 to 117

SMILES | melting point [°C]
OCc1cc2sccc2s1 | 91 to 93
COc1cc(OC)nc(-n2ncn(N)c2=O)n1 | 238
CCOC(=O)CCc1ccc(N2CCN(c3ccc(C(=N)NC(=O)OCC)cc3)C2=O)cc1 | > 335
Cc1cccc2c1NC(=O)CC2(C)C | 120
O=C1Nc2cc(-n3nnn(CCCF)c3=O)c(F)cc2CC1Cl (stereo not drawn) | 114 to 118
CCC(CC)C1CC(=O)C(C(=O)NS(=O)(=O)c2ccc(Cl)cc2)C(=O)C1 (stereo not drawn) | 121 to 122
N#CSc1ccc(N)c(C#N)c1 | 120 to 121
C[C@]1(COc2ccc(N3CCN(C(=O)OCc4ccc(Cl)cc4)CC3)cc2)Cn2cc([N+](=O)[O-])nc2O1 | 184 to 188
CC(C)(C)C(=O)Oc1ccc(S(=O)(=O)c2ccc(S(N)(=O)=O)s2)cc1 | 192 to 195
O=C(NC(Cc1c[nH]cn1)C(=O)NC(Cc1ccc(OCc2ccccc2)cc1)C(=O)NCCOCc1ccccc1)OCc1ccccc1 (stereo not drawn) | 161 to 165
Cc1[nH]c(=O)n(C2CCCCC2)c1-c1ccc(OCc2ccccc2)cc1 | 262
COCCn1c(C)c(C(=O)c2c(Cl)c(Cl)c(Cl)c(Cl)c2C(=O)O)c2ccccc21 | 182 to 184
N[C@@H](Cc1c[nH]cn1)C(=O)N(N)C(=O)C(CC(=O)N1CCOCC1)Cc1cccc2ccccc12 (stereo partly drawn) | 115 to 119
c1ccc2oc(COc3ccc(CCCn4ccnc4)cc3)nc2c1 | 81 to 82
CN(C)c1cc2c(cc1O)CCC1C2CCC2(C)C(=O)CCC12 (stereo not drawn) | 160 to 161
CC(=O)NC(=S)NC1CC2c3cccc4[nH]cc(c34)CC2N(C)C1 (stereo not drawn) | 240 to 242
CC1=CC(=O)C=C2CC(C)C3C4CCC(=O)C4(C)CCC3C12C (stereo not drawn) | 148 to 151
CCN(CC)c1ccc(C(=O)NCCNC(=O)c2ccc(N(CC)CC)cc2)cc1 | 166 to 167
O=C(O)COc1cccc(OCCC(c2ccccc2)(c2ccccc2)c2ccccc2)c1 | 69 to 71
CCCCNC(=S)N1CCC(c2nc(-c3ccc(-c4ccccc4)cc3)c[nH]2)CC1 | 102 to 103

More lines, now with the values ahead:

melting point [°C] | SMILES
201 | COC(=O)C1=C(O)c2cc(Cl)ccc2S(=O)(=O)N1C
173 to 195 | CC=C(c1ccccc1)c1c(C)nn(C)c1NC(=O)Nc1ccccc1
233 | CC(C)n1cc(-c2nc(C(N)=O)c(N)nc2-c2cccc(Cl)c2)ccc1=O
224 to 225 | CCOc1cc(Oc2ccc(S(C)(=O)=O)nc2)cc2cc(C3=NCC(CC(=O)NC)S3)[nH]c12 (stereo not drawn)
198 to 199 | COc1cccc2c(=O)n3c(C)c(Br)sc3nc12
256 to 258 | Cc1nc(Nc2nc(N)nc(-c3ccccc3)c2-c2ccc(=O)n(C(C)C)n2)sc1C
166 to 167 | COC(=O)c1c(C(=O)OC)c(-c2ccc(OC)cc2)c2c3c(ccc2c1OC)OCO3
113 | CCCC(=O)Nc1ccc(OC)c(C(C)=O)c1
165 to 168 | CCCONC(=O)c1nc(-c2ccc(Cl)c(OC)c2F)cc(N)c1Cl
161 to 162 | O=C(NCc1cccnc1)c1sc(N2CCN(Cc3ccc(F)cc3)C2=O)nc1C(F)(F)F
303 to 305 | Sc1nc2cc3ccccc3cc2[nH]1
148 to 150 | COc1ccc(Oc2ccn3nc(-c4ccccc4)c(-c4ccc(=O)n(C(C)C)n4)c3c2)nc1
219 to 221 | COc1cc(NC(=O)c2ccc(-c3ccncc3)cc2)cc(N2CCN(C)CC2)c1OC
183 to 184 | COc1ccnc(C(C)Sc2nc3cc(OC(F)F)c(C)cc3[nH]2)c1 (stereo not drawn)
127 to 128 | COc1cccc(CC(=O)O)c1OCc1cc(OC(C)C)nn1Cc1ccc(Cl)cc1Cl
101 to 103 | COC(=O)CCCc1cc2c(Nc3cc(OC)c(OC)c(OC)c3)c(C#N)cnc2s1
134 to 136 | COC(=O)c1ccccc1C(=O)c1ccc(-n2ccnc2)cc1
142 to 144 | CN(c1ccc(OCc2ccc(OC(F)(F)F)cc2)cc1)C1CCN(c2ccc(OC[C@H]3CCn4cc([N+](=O)[O-])nc4O3)cc2)CC1
186 to 189 | O=S1(=O)N=C2CCCN2c2ccc(Oc3cccc(-c4ccco4)c3)cc21

melting point [°C] | SMILES
272 | Nc1ccc(Oc2c(NCc3ccccc3)cc(C(=O)O)cc2S(N)(=O)=O)cc1
> 300 | O=[N+]([O-])c1cccc(-c2cc3c(O)ncnc3o2)c1
90 to 91 | CSC1=C(C#N)C(c2ccc(N(C)C)cc2)(c2cccnc2)C(=O)N1CCCN(C)C (stereo not drawn)
190 to 193 | COc1cc2ncc(C#N)c(Nc3cccc(C(F)(F)F)c3)c2cc1OC
153 to 157 | O=[N+]([O-])c1cc(Cl)c(CCN2CCN(c3nsc4ccccc34)CC2)cc1Cl
335 to 338 | COc1ccccc1-n1c(=O)[nH]c2c(C(N)=O)nc(-c3ccc(C#N)cc3)nc21
176 to 177 | O=C(N[C@H](Cc1ccc(CC(F)(F)C(F)(F)F)cc1)[C@@H](O)c1cccc(Cl)c1)c1cccc2c1C=CCCC2 (racemic)
179 to 183 | Cc1c(CCc2ccccc2)c(=O)oc2cc(OCC#N)cc(OCC#N)c12
52 to 54 | CN1C(=O)C(c2ccc(OC(F)F)cc2)(c2cccc(OC(F)F)c2)N=C1N (stereo not drawn)
164 to 165 | CC(C)c1nc(-c2ccccc2)c(F)c(-c2ccc(F)cc2)c1CO
142 to 144 | Nc1ccc(OC(F)(F)F)cc1C(=O)O
279 | Nc1ccc(-c2noc(-c3cnn4c(C(F)F)cc(-c5ccc(Cl)c(Cl)c5)nc34)n2)cn1
170 to 172 | CCC1c2cccn2-c2ccc(Cl)cc2N1S(=O)(=O)c1ccc(O)c(C)c1 (stereo not drawn)
146 to 150 | CNC(=O)C1=CC(C)(C)Oc2ccc(C(F)(F)F)cc21
190 to 194 | COc1ccc(C(=O)Nc2ccccc2)cc1NS(=O)(=O)c1ccccc1
202 to 204 | COc1ccc(-c2nc(Sc3ccc(Cl)cc3)n(C3CCCCO3)c2-c2ccc(OC)cc2)cc1 (stereo not drawn)
242 to 244 | Cc1cc(Nc2cc(-c3ccccc3)nc3ccccc23)[nH]n1
163 | CCCCOc1cc(-c2cc3ccccc3[nH]2)ccc1O
157 to 158 | CCc1cc(CCCOc2c(C)cc(-c3noc(C(F)(F)F)n3)cc2C)on1
